# Reference: PMC11544713, “The Application of Untargeted Metabolomic Approaches for the Search of Common Bioavailable Metabolites in Human Plasma Samples from Lippia citriodora and Olea europaea Extracts” (Journal of Agricultural and Food Chemistry, 2024)
# What was measured:
# [1] = Acute intervention: nutrikinetics of plasma metabolites after ingestion of L. citriodora extract (untargeted HPLC-ESI-QTOF-MS)
# Protocol: (§1) A total of 25 healthy individuals participated, with an average age of 27 ± 9 years and a mean body mass index (BMI) of 23 ± 3 kg/m^2. None of the participants were taking any medications or nutritional supplements nor did they have any chronic diseases or gastrointestinal issues. The sample size was established based on findings from previous bioavailability research.[14] All participants provided informed consent before participating in the study.
# (§2) The intervention study was carried out at Miguel Hernández University. Following an overnight fast, the volunteers were categorized into the subsequent groups: a subgroup to evaluate the LC leaf extract (n = 8), another for the OE leaf extract (n = 8), and the placebo subgroup (n = 9). This was a double-blind study, in which sample collection and treatment were carried out uniformly across all three subgroups.
# (§3) Water was provided ad libitum. Prior to the ingestion of the capsule, a nurse inserted a cannula into the ulnar vein of each volunteer’s nondominant arm, and blood samples were drawn into EDTA-coated tubes at baseline (t = 0). Blood samples were then collected at 0.5, 1, 2, 4, 6, 8, and 10 h after the consumption of the 500 mg capsule. Plasma was separated through centrifugation (10 min at 3000 rpm and 4 °C) and stored at −80 °C until further analysis.
# (§4) Plasma samples were initially treated using a mixture of methanol and ethanol (50:50; v:v) to remove proteins, following previously reported protocols.[19] During the sample treatment, pooled quality controls (pooled-QC) were prepared by combining equal aliquots from each sample. These QC samples were processed by using the same protocols as the experimental biological samples.
# (§5) A reversed-phase analytical C18 column (Agilent Zorbax Eclipse Plus, 1.8 μm, 4.6 × 150 mm^2) with a protective cartridge with the same packing was used. MS data were acquired in negative ionization mode, operating in full scan across a mass-to-charge ratio (m/z) range of 50–1700. The analytical method used was adapted from that described by Villegas-Aguilar et al.[19]
# (§6) Metabolite nutrikinetics were studied using PKSolver, an add-in program for pharmacokinetic data analysis in Microsoft Excel. The time to reach the maximum concentration (observed Tmax) was calculated for each significant metabolite. As an untargeted metabolomic approach was used to detect the circulating metabolites, these were not quantified. Therefore, the maximum concentration (Cmax) and area under the curve (AUC) parameters were calculated in a relative way by using the deconvoluted chromatographic areas. […] Statistical differences were determined by unpaired t tests. All p values less than 0.05 were considered statistically significant.
# [2] = Acute intervention: nutrikinetics of plasma metabolites after ingestion of O. europaea extract (untargeted HPLC-ESI-QTOF-MS); settings: in vivo
# Protocol: as §1, §2, §3, §4, §5, §6
# [3] = 0.5 h after L. citriodora extract
# [4] = 1 h after L. citriodora extract
# [5] = 2 h after L. citriodora extract
# [6] = 4 h after L. citriodora extract
# [7] = 6 h after L. citriodora extract
# [8] = 8 h after L. citriodora extract
# [9] = 10 h after L. citriodora extract
# [10] = human plasma, 500 mg capsule of L. citriodora (LC) extract, oral, mean ± SD
Compound,"mean chromatographic area in plasma, T0.5 [1, 3]","mean chromatographic area in plasma, T1 [1, 4]","mean chromatographic area in plasma, T2 [1, 5]","mean chromatographic area in plasma, T4 [1, 6]","mean chromatographic area in plasma, T6 [1, 7]","mean chromatographic area in plasma, T8 [1, 8]","mean chromatographic area in plasma, T10 [1, 9]","AUC: area under the zero-moment curve [1, 10]","Cmax: relative maximum plasma level [1, 10]","observed Tmax: time required to reach Cmax [1, 10]",further results
"CC1=CC(=O)CC(C)(C)C1(O)/C=C/C(C)=C/COC1OC(CO)C(O)C(O)C1O (single isomer, unassigned; isomer 1) [abscisic alcohol 11-glucoside isomer 1, abscisic alcohol 11-glucoside]",50,188,61,0,0,0,0,259 ± 134 relative chromatographic area/h,202 ± 82 relative chromatographic area,1.2 ± 0.4 h,
"O=C(O)C=Cc1ccc(OS(=O)(=O)O)c(O)c1 (single isomer, unassigned; isomer 1) [caffeic acid 4-sulfate isomer 1, caffeic acid 4-sulfate]",,,,,,,,,,,"AUC: area under the zero-moment curve ([1]; human, in vivo, po, 500 mg): 1157 ± 757 relative chromatographic area/h; Cmax: relative maximum plasma level ([1]; human, in vivo, po, 500 mg): 325 ± 147 relative chromatographic area; observed Tmax: time required to reach Cmax ([1]; human, in vivo, po, 500 mg): 3 ± 1 h; mean chromatographic area in plasma, T0.5 ([1]; in vivo): 21; mean chromatographic area in plasma, T1 ([1]; in vivo): 89; mean chromatographic area in plasma, T2 ([1]; in vivo): 280; mean chromatographic area in plasma, T4 ([1]; in vivo): 177; mean chromatographic area in plasma, T6 ([1]; in vivo): 86; mean chromatographic area in plasma, T8 ([1]; in vivo): 67; mean chromatographic area in plasma, T10 ([1]; in vivo): 0"
"COc1cc(CCCO)ccc1OC1OC(CO)C(O)C(O)C1O (single isomer, unassigned; isomer 1) [dihydroconiferin isomer 1, dihydroconiferin]",44,137,0,0,0,0,0,126 ± 28 relative chromatographic area/h,139 ± 19 relative chromatographic area,0.9 ± 0.2 h,
"CC1=CC(=O)CC(C)(C)C1(O)/C=C/C(C)=C/COC1OC(CO)C(O)C(O)C1O (single isomer, unassigned; isomer 2) [abscisic alcohol 11-glucoside isomer 2, abscisic alcohol 11-glucoside]",111,519,176,23,0,0,0,757 ± 174 relative chromatographic area/h,562 ± 251 relative chromatographic area,2 ± 1 h,
"O=C(O)C=Cc1ccc(OS(=O)(=O)O)c(O)c1 (single isomer, unassigned; isomer 2) [caffeic acid 4-sulfate isomer 2, caffeic acid 4-sulfate]",,,,,,,,,,,"AUC: area under the zero-moment curve ([1]; human, in vivo, po, 500 mg): 1656 ± 1922 relative chromatographic area/h; Cmax: relative maximum plasma level ([1]; human, in vivo, po, 500 mg): 357 ± 268 relative chromatographic area; observed Tmax: time required to reach Cmax ([1]; human, in vivo, po, 500 mg): 3 ± 2 h; mean chromatographic area in plasma, T0.5 ([1]; in vivo): 0; mean chromatographic area in plasma, T1 ([1]; in vivo): 67; mean chromatographic area in plasma, T2 ([1]; in vivo): 277; mean chromatographic area in plasma, T4 ([1]; in vivo): 266; mean chromatographic area in plasma, T6 ([1]; in vivo): 189; mean chromatographic area in plasma, T8 ([1]; in vivo): 129; mean chromatographic area in plasma, T10 ([1]; in vivo): 22"
"COc1cc(CCCO)ccc1OC1OC(CO)C(O)C(O)C1O (single isomer, unassigned; isomer 2) [dihydroconiferin isomer 2, dihydroconiferin]",34,136,83,0,0,0,0,244 ± 102 relative chromatographic area/h,136 ± 28 relative chromatographic area,1 ± 0 h,
"CC1=CC(=O)CC(C)(C)C1(O)/C=C/C(C)=C/COC1OC(CO)C(O)C(O)C1O (single isomer, unassigned; isomer 3) [abscisic alcohol 11-glucoside isomer 3, abscisic alcohol 11-glucoside]",56,258,13,13,0,0,0,267 ± 94 relative chromatographic area/h,258 ± 95 relative chromatographic area,1 ± 0 h,
CC(O)/C=C\C/C=C\C/C=C\CCCCCCCC(=O)O (stereo not shown) [17-hydroxylinolenic acid],81,428,445,184,31,12,20,1621 ± 1914 relative chromatographic area/h,335 ± 306 relative chromatographic area,6 ± 4 h,
COc1cc(/C=C/C(=O)O)ccc1O[C@@H]1O[C@H](C(=O)O)[C@@H](O)[C@H](O)[C@H]1O [ferulic acid 4-O-glucuronide],0,0,66,163,217,177,89,1304 ± 1975 relative chromatographic area/h,282 ± 358 relative chromatographic area,5 ± 2 h,
CC(C)=C1CC2(C)C(=CC1=O)CCC(OC1OC(CO)C(O)C(O)C1O)C2C (stereo not shown) [isopetasoside],95,394,200,25,14,0,0,722 ± 166 relative chromatographic area/h,455 ± 162 relative chromatographic area,2 ± 1 h,
C=C(C)[C@@H]1[C@H]2OC(=O)[C@@H]1[C@]1(O)C[C@H]3O[C@]34C(=O)O[C@H]2[C@]14C [picrotoxinin],32,102,91,0,0,0,0,231 ± 102 relative chromatographic area/h,136 ± 44 relative chromatographic area,1.3 ± 0.5 h,
"O=C(O)CCCCCCCCC(=O)O [sebacic acid Isomer 2, sebacic acid]",,,,,,,,,,,"mean chromatographic area in plasma, T0.5 ([1]; in vivo): 15; mean chromatographic area in plasma, T1 ([1]; in vivo): 86; mean chromatographic area in plasma, T2 ([1]; in vivo): 86; mean chromatographic area in plasma, T4 ([1]; in vivo): 15"
oleuropein aglycone glucuronide [oleuropein aglycone glucuronide isomer 1],,,,,,,,,,,"Cmax: relative maximum plasma level ([2]; human, po, 500 mg): 244 ± 128 relative chromatographic area; observed Tmax: time required to reach Cmax ([2]; human, po, 500 mg): 0.8 ± 0.2 h; mean chromatographic area in plasma, T0.5 [2]: 186; mean chromatographic area in plasma, T1 [2]: 202; mean chromatographic area in plasma, T2 [2]: 29; mean chromatographic area in plasma, T4 [2]: 0; mean chromatographic area in plasma, T6 [2]: 0; mean chromatographic area in plasma, T8 [2]: 0; mean chromatographic area in plasma, T10 [2]: 0"
oleuropein aglycone glucuronide [oleuropein aglycone glucuronide isomer 2],,,,,,,,,,,"observed Tmax: time required to reach Cmax ([2]; human, po, 500 mg): 0.9 ± 0.2 h; mean chromatographic area in plasma, T1 [2]: 482; mean chromatographic area in plasma, T2 [2]: 197; mean chromatographic area in plasma, T4 [2]: 24; mean chromatographic area in plasma, T6 [2]: 0; mean chromatographic area in plasma, T8 [2]: 0; mean chromatographic area in plasma, T10 [2]: 0"
